Patent US20240398749A1, “INHALABLE PROTEASE INHIBITORS FOR USE IN THE PREVENTION AND/OR TREATMENT OF FIBROTIC AUTOIMMUNE OR INFLAMMATORY LUNG DISEASES” (priority 2021, published 2024)
Values joined by “and” are separate entries in the source; they are usually repeats but may differ in a detail not shown here. Identical values can stand only once. Like-named read-outs stand apart in the source and are kept apart here.

How the values were obtained:
Th17-lymphocytes = test: Measurement of Th17-lymphocytes by flow cytometry; format: cell-based, human
IL-17 release = IL-17 release from human mononuclear cells in whole blood stimulated with cytokines; format: cell-based
A549 cells [1] = test: IL-8 release from A549 cells, spontaneous or TGFbeta-induced; format: cell-based; conditions: TGFbeta stimulation, 24 h, 10 μg/ml E64D
[2] = test system: THP1 cells (macrophage-like cell line); test: IL-8 release from stimulated THP1 cells; format: cell-based; conditions: IL-1 or TNF/IL-1 stimulated cells, 24 hours
Experimental: This stimulation corresponds to a pro-inflammatory response. The supernatants were then removed, and the IL-8 release was measured.

A549 cells [3] = format: cell-based
[4] = Nebulizer test / cascade impactor measurements with M-neb dose+; format: physicochemical
Wistar rats = test: Dose range finding study, 14 days nose-only inhalation; format: in vivo; conditions: for lung with a spongy consistency (animals affected): females
Description: The purpose of this study was to perform a dose range finding (DRF) study using 14 days nose-only-inhaled Aloxistatin in rats. Possible side effects of Aloxistatin were characterized based on clinical observations, body weight, hematology, clinical pathology, macroscopic examination and histopathology of selected organs (respiratory tract, heart, kidneys, liver and spleen). Additionally, the setup of chemical analysis method for toxicokinetic analysis was established.
For the study, 64 Wistar rats [Crl:Wistar(Han)] received the test item at doses of 22.67, 68 or 227 μg/kg bw for 14 consecutive days via nose-only inhalation. Ethanol ≥96% was used as vehicle. Animals of the main study were sacrificed on […].
All animals were clinically observed in their cages at least once a day. Individual body weights were determined twice weekly. Blood samples for hematology and clinical chemistry were withdrawn before the exposure and on day 14. Necropsy, including a macroscopic evaluation of selected organs, was performed on day 15 or day 29 followed by histopathology of preselected organs. All macroscopic changes were recorded. Blood and lung sampling for setup of chemical analysis method for toxicokinetic analysis was performed on day 1 and 15 and upon sacrifice (day 2 and 15), respectively.

SARS-CoV-2 [5] = format: cell-based; conditions: HEK293-ACE2, MOI 5, 100 μM
SARS-CoV-2 [6] = format: cell-based; conditions: A549, MOI 5, 100 μM
pseudovirus = test: Pseudovirus inoculation of human ACE2 transgenic mice, bioluminescence assay; format: in vivo; conditions: pre-treated via tail vein injection 2 days prior to virus inoculation; 1 day post infection
fibroblasts = format: cell-based
Vero e6-cells = conditions: concentrations up to 100 μM
Th17 differentiation = conditions: rats; cited from earlier work
Mouse-Coronavirus = Mouse-Coronavirus model systems; cited from earlier work
SARS-CoV-2 [7] = conditions: E64d added to the TMPRSS2 inhibitor Camostat; cited from earlier work
physchem = conditions: organic solvent or mixture
[8] = in vivo, po; cited from earlier work
[9] = cited from earlier work
[10] = test system: human peripheral blood cells (PBI); test: Chromosome aberration test
[11] = test system: Salmonella typhimurium strains TA 1535, TA 1537, TA 98, TA 100, and the Escherichia coli strain WP2 uvrA; test: Reverse mutation assay (plate incorporation test)
rats = test: Toxicology study, 14-day inhalational applications; conditions: inhalation on 14 consecutive days
mice = conditions: cited from earlier work
[12] = 22.67, 68 or 227 μg/kg bw, 14 days nose-only inhalation

With CCOC(=O)[C@H]1O[C@@H]1C(=O)N[C@@H](CC(C)C)C(=O)NCCC(C)C [E64D, aloxistatin] the “polarization of Th2-lymphocytes” value (Th17-lymphocytes) was “polarize Th2-lymphocytes into Th1-lymphocytes”, the Th1 cells (Th17-lymphocytes; co-incubation with E64D) was “dose-dependently up-regulates” and the “Th17 and Th17.1 cells” value (Th17-lymphocytes; co-incubation with E64D) was “dose-dependently down-regulates”. For the same compound, the Treg lymphocytes (Th17-lymphocytes; co-incubation with E64D) was “upregulation of Treg lymphocytes”, the “percentage of Th17 cells” value (Th17-lymphocytes; stimulation with IC-beads, with or without cytokine mix, whole blood lymphocytes and T-lymphocytes from bronchoalveolar lavage) was “reduces the percentage of Th17 cells” and the “release of the cytokine IL-17” value (IL-17 release) was “can be inhibited”. For the same compound, the “TGFbeta-induced IL-8 release” value (A549 cells [1]) was “block the induction almost completely”, the IL-8 release [2] was “clearly lowers the IL-8 release” and the “TGF-beta induced release of alpha-smooth muscle actin (aSMA)” value (A549 cells [3]) was “inhibits the TGF-beta induced release”. The “TGF-beta induced release of collagen 1” value (A549 cells [3]) was “inhibits the TGF-beta induced release”, the TGFbeta-induced collagen production (A549 cells [3]) was “lowers the TGFbeta-induced collagen production of A549 in a dose-dependent manner” and the “TGFbeta-induced collagen release at highest dose” value (A549 cells [3]) was “almost goes back to the initial value”. The “aerosol output (fraction of actually inhaled E64d)” value ([4]; 0.34 mg/ml solution) was 80%, the “aerosol output (fraction of actually inhaled E64d)” value ([4]; 34 mg/ml solution) was 63% and the “fine particle fraction (<5 μm)” value ([4]; all concentrations tested (0.34, 3.4 and 34 mg/ml)) was greater than 95%. It also gave an aerosol release rate ([4]; concentration of the solution 340 ug/ml) of 0.108 mg/min, an aerosol release rate ([4]; concentration of the solution 3.4 mg/ml) of 1 mg/min and an aerosol release rate ([4]; concentration of the solution 34 mg/ml) of 8.7 mg/min. For the same compound, the “cumulative active compound deposition” value ([4]; particle size distribution about 0.5-3 μm, impactor assays) was greater than 99%, the body weight (Wistar rats; [12]) was “no statistical differences between the groups” and the “changes in clinical chemistry parameters” value (Wistar rats; [12]) was “considered incidental”. For the same compound, the clinical observations (Wistar rats; [12]) was “no clinical observations were noted”, the mortality (Wistar rats; [12]) was “No animal was found dead or killed moribund” and the “lung with a spongy consistency (animals affected)” value (Wistar rats; low dose group) was 1/5. For the same compound, the “lung with a spongy consistency (animals affected)” value (Wistar rats; medium dose group) was 1/5, the “slightly enlarged lung-associated lymph nodes (animals affected)” value (Wistar rats; male animals, medium dose group, macroscopic examination) was 2/5 and the histopathological examination (Wistar rats; respiratory tract, lymph nodes, heart, kidneys, liver, spleen, after 14 days and after 14 days recovery) was “no treatment-related findings were detected”. For the same compound, the cell lysis (SARS-CoV-2 [5]) was “effectively inhibited”, the “virus replication of SARS-CoV-2” value (SARS-CoV-2 [5]) was “effectively inhibited” and the cell lysis (SARS-CoV-2 [6]) was “effectively inhibited”. For the same compound, the “virus replication of SARS-CoV-2” value (SARS-CoV-2 [6]) was “effectively inhibited”, the “bioluminescence activity (virus replication)” value (pseudovirus) was “decrease in bioluminescence activity” and the “IL-17 induced proliferation and differentiation of fibroblasts” value (fibroblasts) was “inhibiting the IL-17 induced proliferation and differentiation of fibroblasts”. For the same compound, the cytotoxicity (Vero e6-cells) was “non-toxic”, the Th17 differentiation (Th17 differentiation) was “suppresses Th17 differentiation in a dose-dependent manner” and the virus replication (Mouse-Coronavirus) was “effective inhibition of virus replication”. The “inhibition of virus entry” value (SARS-CoV-2 [7]) was “additive efficacy”, the solubility (physchem) was ≤ 68000 µg/mL and ≤ 199000 µM and the dose absorbed [8] was “at least 60%”. The “serum AST and ALT activities” value ([9]; rat, in vivo) was “rose dramatically”, the “time of minimum liver GSH level after administration” value ([9]; rat, in vivo) was 5 h and the “liver glutathion (GSH) levels” value ([9]; rats) was “obvious drop”. The “aberrant cells (gaps excluded)” value ([10]; after 4 h of treatment, both without and with S9-mix) was “only one aberrant cell”, the structural chromosome aberrations ([10]; treated PBL) was “nearly complete absence of structural chromosome aberrations” and the “precipitation in the overlay agar on the incubated agar plates” value [11] was 5000 μg/plate. For the same compound, the “toxic effects (reduction in the number of revertants)” value ([11]; all strains, with and without metabolic activation, up to 5000 μg/plate) was “No toxic effects”, the “increase in revertant colony numbers” value ([11]; five tester strains, any dose level, with and without S9 mix) was “No substantial increase” and the mutagenicity ([11]; reverse mutation assay conclusion) was “non-mutagenic”. The “No-Observed-Adverse-Effect-Level (NOAEL), pulmonary dose” value (rats) was 413 μg/kg bw.
For CC(C)C[C@H](NC(=O)[C@H]1O[C@@H]1C(=O)O)C(=O)NCCCCN=C(N)N [E64], the emphysematous changes (mice) is listed as “markedly attenuated emphysematous changes”.
